Assay results as given in PMC12691742, “Anti-Cancer Outcome of Glucocorticoid Receptor Transrepression by Synephrine Derivatives in Hematological Malignancies” (International Journal of Molecular Sciences, 2025).

Tested on: NF-kB activity in K562 and Granta cells
Test: NF-kB.Luc reporter assay, positive control
Assay type: cell-based
Conditions: TPA 5 ng/mL or 10 ng/mL (method), 5 h
Protocol: We analyzed GR TR function using an NF-kB.Luc reporter assay with the irritating inflammatory agent phorbol 13-acetate 12-myristate (TPA) as an inducer of NF-kB signaling and positive control.
Figure 4 Effects of synephrine derivatives on GR transrepression in Granta lymphoma and K562 leukemia cells. (A) K562 and Granta cells stably infected with the lentiviruses bearing the NF-kB luciferase reporter. Cells were incubated for 5 h with the solvent (control), TPA (5 ng/mL), 4S-C2 (10 µM), 8S-E3 (10 µM), 10S-E2 (1 µM), or 13S-G2 (1 µM). Luciferase activity was determined as described in the Materials and Methods section. (B) IL1-α and IL6 mRNA expression in K562 and Granta cells. […] The mean ± SD was calculated for three individual samples/condition (n = 3). […]
Lentiviral stocks were generated using the lentiviral expression vector NF-kB. […] The infection efficiency exceeded 90% (tracked by GFP fluorescence).
Cells (10^4 cells/well in a 24-well plate), stably expressing Firefly Luciferase under the NF-kB promoter, were treated for 5 h with TPA (12-O-tetradecanoylphorbol-13-acetate, Boston, MA, USA, 10 ng/mL), 4S-C2 (10 µM), 8S-E3 (10 µM), 10S-E2 (1 µM), 13S-G2 (1 µM), or the vehicle. Luciferase activity was measured as described using a commercial Luciferase Assay (“Promega”, Madison, WI, USA) and Luminometer TD 20/20 (“Turner Design Instruments”, San Jose, CA, USA). […]

CCCCCCCCCCCCCC(=O)O[C@@H]1[C@@H](C)[C@@]2(O)[C@@H](C=C(CO)C[C@]3(O)C(=O)C(C)=C[C@@H]23)[C@@H]2C(C)(C)[C@]12OC(C)=O [TPA, 12-O-tetradecanoylphorbol-13-acetate]
NF-kB activation: 5-9 fold
